Measurements published in patent US20230026696A1, “TRPV4 RECEPTOR LIGANDS” (UNIVERSITY OF UTAH RESEARCH FOUNDATION, priority 2019, published 2023).
pIC50: −log10 of the molar value.

What was measured:
[1] = target: T1, human TRPV4 (Homo sapiens, UniProt Q9HBA0); experiment: Fluorometric cell-based Ca2+ flux assay, HEK-293 cells stably overexpressing human TRPV4; settings: for pIC50: HEK-293 stably overexpressing human TRPV4, agonist GSK1016790A 30 nM
T1 construct: expressed in transfected cells
Summary of the method: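 HEK-293 cells stably overexpressing human TRPV4, Fluo 4-loaded, pre-incubated 30 min at 37° C with compound, then stimulated with 30 nM GSK1016790A (final). Max ΔF/s over 1 min, media-corrected, expressed relative to no-antagonist control; IC50 from ≥8 concentrations, ≥3 replicates.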

[2] = system: intraocular pressure (IOP); experiment: In vivo IOP assay in dog model of ocular hypertension (ADAMTS10 Beagles)
Procedure: Homozygous Beagels with autosomal recessive missense mutation in the ADAMTS10 gene develop significant IOP elevations due to decreased outflow facility for aqueous humor, resulting in open angle glaucoma that manifests as optic nerve head cupping and optic neuropathy.
8 drops of Compound 52 (200 mM in hydroxypropyl methylcellulose solution, stock dissolved in DMSO) were administered to the Beagels at 7 AM for 1.5 hours. Control eyes received the vehicle (hydroxypropyl methylcellulose eyedrop with proper dilution of DMSO). IOP was measured by tonometry at 9:00 AM (6 readings per event, averaged) in dogs under topical anesthesia (N=5 OAG, N=5 non-symptomatic dogs). General ophthalmic examinations were performed by slit lamp biomicroscopy (Kowa SL-17 Portable Slit Lamp; Kowa Company, Ltd.) and indirect ophthalmoscopy (Keeler All Pupil II headset; Keeler Instruments; Pan Retinal 2.2D condensing lens; Volk Optical) to detect potential treatment-related adverse effects.

T1 sequence (Q9HBA0 whole entry): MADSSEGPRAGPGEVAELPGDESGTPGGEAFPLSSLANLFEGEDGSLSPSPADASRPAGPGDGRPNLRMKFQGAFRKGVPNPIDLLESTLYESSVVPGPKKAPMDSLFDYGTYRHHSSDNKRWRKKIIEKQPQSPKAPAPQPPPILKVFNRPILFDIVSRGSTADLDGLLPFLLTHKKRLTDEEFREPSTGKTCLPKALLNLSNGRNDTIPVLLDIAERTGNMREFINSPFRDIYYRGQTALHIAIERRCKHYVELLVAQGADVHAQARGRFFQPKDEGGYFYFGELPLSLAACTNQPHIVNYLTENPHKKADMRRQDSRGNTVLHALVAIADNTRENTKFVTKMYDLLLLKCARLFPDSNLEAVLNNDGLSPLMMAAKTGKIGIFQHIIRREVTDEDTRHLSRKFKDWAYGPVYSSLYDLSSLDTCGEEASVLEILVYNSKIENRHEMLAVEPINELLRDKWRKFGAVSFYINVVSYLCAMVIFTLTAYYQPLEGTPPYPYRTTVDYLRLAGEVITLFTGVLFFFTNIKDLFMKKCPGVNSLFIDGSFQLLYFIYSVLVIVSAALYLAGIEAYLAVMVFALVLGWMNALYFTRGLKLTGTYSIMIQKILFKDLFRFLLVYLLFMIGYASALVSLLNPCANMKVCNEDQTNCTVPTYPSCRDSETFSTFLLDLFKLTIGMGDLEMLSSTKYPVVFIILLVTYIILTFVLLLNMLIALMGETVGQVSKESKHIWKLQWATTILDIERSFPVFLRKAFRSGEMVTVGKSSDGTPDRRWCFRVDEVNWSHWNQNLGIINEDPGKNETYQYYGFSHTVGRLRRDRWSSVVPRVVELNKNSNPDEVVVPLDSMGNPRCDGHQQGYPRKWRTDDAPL

Row | SMILES | pIC50 [1] | selectivity for TRPV4 versus TRPA1, TRPM8, TRPV3 and TRPV1 ([1]; comparison of IC50 values) | average IOP after topical application ([2]; ocular hypertensive dogs, mean baseline IOP 45.5 mm Hg, 8 drops, 200 mM in hydroxypropyl methylcellulose) [mm Hg] | tolerability in dogs ([2]; topical, N=10) | signs of ocular discomfort or conjunctival hyperemia ([2]; topical, N=10, slit lamp and ophthalmoscopy)
1 | N#Cc1ccc(OCC2(CO)CN(S(=O)(=O)c3ccc(Cl)cc3Cl)C2)cc1F [Compound 11, 4-((1-((2,4-Dichlorophenyl)sulfonyl)-3-(hydroxymethyl)azetidin-3-yl)methoxy)-2-fluorobenzonitrile] | 7.21 to 7.28 | substantially more selective for TRPV4 | – | – | –
2 | Cl.N#Cc1ccc(OCC2(N)CN(S(=O)(=O)c3ccc(Cl)cc3Cl)C2)cc1F [Compound 52, 4-((3-Amino-1-((2,4-dichlorophenyl)sulfonyl)azetidin-3-yl)methoxy)-2-fluorobenzonitrile hydrochloride salt] | 7.18 to 7.62 | – | 36.6 | well-tolerated | no observable signs of ocular discomfort or conjunctival hyperemia
